ChEMBL document CHEMBL2311506, “Novel benzoxazole inhibitors of mPGES-1” (Bioorg Med Chem Lett, 2013)

Columns and labels:
[1] = Half life in human hepatocytes; format: ADME, cell-based, Hepatocyte
[2] = Inhibition of recombinant rat mPGES-1 using PGH2 as substrate incubated 20 mins prior to substrate addition measured after 30 secs by EIA
[3] = molecular target: T1, Prostaglandin G/H synthase 2 (Homo sapiens, UniProt P35354); assay: Inhibition of COX2 in human fetal fibroblast assessed as SnCl2-induced PGF2alpha production after 40 mins by ELISA
T1 sequence (P35354 whole entry): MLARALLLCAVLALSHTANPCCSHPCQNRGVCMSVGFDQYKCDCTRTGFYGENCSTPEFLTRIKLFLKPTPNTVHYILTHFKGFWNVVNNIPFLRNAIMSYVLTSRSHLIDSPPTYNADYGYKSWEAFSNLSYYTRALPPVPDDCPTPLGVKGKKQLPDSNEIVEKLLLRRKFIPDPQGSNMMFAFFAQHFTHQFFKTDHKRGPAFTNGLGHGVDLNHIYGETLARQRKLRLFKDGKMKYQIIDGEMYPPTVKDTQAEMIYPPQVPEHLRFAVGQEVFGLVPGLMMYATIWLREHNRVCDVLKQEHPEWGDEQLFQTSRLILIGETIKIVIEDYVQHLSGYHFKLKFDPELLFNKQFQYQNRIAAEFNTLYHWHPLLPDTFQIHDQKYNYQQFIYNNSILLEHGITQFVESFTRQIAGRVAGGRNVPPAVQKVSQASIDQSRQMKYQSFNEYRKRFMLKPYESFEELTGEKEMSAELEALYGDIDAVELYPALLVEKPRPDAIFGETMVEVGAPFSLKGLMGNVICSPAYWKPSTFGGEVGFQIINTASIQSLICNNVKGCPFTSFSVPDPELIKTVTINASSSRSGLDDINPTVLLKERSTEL

[4] = molecular target: Hematopoietic prostaglandin D synthase (Homo sapiens, UniProt O60760); assay: Inhibition of human PGDS
[5] = Tmax in dog at 0.5 mg/kg, po; format: ADME, organism-based, Canis lupus familiaris; design: dose 0.5 mg/kg, route oral; conditions: in vivo
[6] = Oral bioavailability in dog at 0.5; format: ADME, organism-based, Canis lupus familiaris; conditions: in vivo
[7] = Half life in dog at 0.25 mg/kg, iv; format: ADME, organism-based, Canis lupus familiaris; design: dose 0.25 mg/kg, route intravenous; conditions: in vivo
[8] = Cmax in dog at 0.5 mg/kg, po; format: ADME, organism-based, Canis lupus familiaris; design: dose 0.5 mg/kg, route oral; conditions: in vivo
[9] = Volume of distribution at steady state in dog at 0.25 mg/kg, iv; format: ADME, organism-based, Canis lupus familiaris; design: dose 0.25 mg/kg, route intravenous; conditions: in vivo, read-out: Vdss
[10] = Mean residence time in dog at 0.25 mg/kg, iv; format: ADME, organism-based, Canis lupus familiaris; design: dose 0.25 mg/kg, route intravenous; conditions: in vivo
[11] = Plasma protein binding in rat; format: ADME, cell-free; conditions: read-out: PPB (converted)
[12] = Half life in human liver microsomes; format: ADME, Microsome
[13] = Half life in rat liver microsomes; format: ADME, Microsome
[14] = Permeability of the compound by pampa; format: ADME; conditions: read-out: permeability
[15] = Plasma protein binding in human; format: ADME, cell-free; conditions: read-out: PPB (converted)
Prostaglandin E synthase = molecular target: T2, Prostaglandin E synthase (Homo sapiens, UniProt O14684); assay: Inhibition of human recombinant mPGES-1 using PGH2 as substrate incubated 20 mins prior to substrate addition measured after 30 secs by EIA
T2 sequence (O14684 whole entry): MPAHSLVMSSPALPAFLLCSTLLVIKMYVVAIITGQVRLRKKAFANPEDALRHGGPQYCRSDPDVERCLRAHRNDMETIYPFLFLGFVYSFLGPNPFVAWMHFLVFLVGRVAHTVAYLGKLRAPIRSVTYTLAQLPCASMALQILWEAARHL

[16] = Inhibition of rat mPGES-1 transfected in CHOK1 cells using [3H]PGH2 as substrate; format: cell-based; conditions: cho-k1

Chain of Hematopoietic prostaglandin D synthase (O60760 whole entry): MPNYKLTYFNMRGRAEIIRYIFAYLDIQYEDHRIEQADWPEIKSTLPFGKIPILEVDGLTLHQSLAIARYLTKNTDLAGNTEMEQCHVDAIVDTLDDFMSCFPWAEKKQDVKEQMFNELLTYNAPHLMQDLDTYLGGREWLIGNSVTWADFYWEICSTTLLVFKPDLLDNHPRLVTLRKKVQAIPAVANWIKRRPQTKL

Compound	IC50 (Prostaglandin E synthase)	also measured
O=C(N[C@H]1CCC[C@@H]1OCc1ccccc1)C1CCN(c2nc3cc(Cl)ccc3o2)CC1	–	half-life [1]: 80 min; IC50 [2]: > 10 µM; IC50 [3]: > 100 µM; IC50 [4]: > 10 µM; Tmax [5]: 30 min; bioavailability [6]: 55%; half-life [7]: 432 min; Cmax [8]: 1300 nM; Vd [9]: 1 L/kg; MRT [10]: 486 min; fraction unbound [11]: 0.02; half-life [12]: 10.8 min; half-life [13]: 7.2 min; Papp [14]: 1.3 ×10⁻⁶ cm/s
O=C(N[C@H]1CCC[C@@H]1COc1ccccc1)C1CCN(c2nc3cc(Cl)ccc3o2)CC1	0.034 µM	fraction unbound [15]: < 0.01
O=C(N[C@@H]1CCC[C@@H]1COc1ccccc1)C1CCN(c2nc3cc(Cl)ccc3o2)CC1	0.0431 µM	–
O=C(N[C@H]1CCC[C@@H]1CO)C1CCN(c2nc3cc(Cl)ccc3o2)CC1	3.2 µM	–
O=C(N[C@@H]1CCC[C@@H]1CO)C1CCN(c2nc3cc(Cl)ccc3o2)CC1	0.785 µM	–
O=C(N[C@@H]1CCC[C@H]1OCC1CCCC1)C1CCN(c2nc3cc(Cl)ccc3o2)CC1	0.176 µM	–
CO[C@@H]1CCC[C@H]1NC(=O)C1CCN(c2nc3cc(Cl)ccc3o2)CC1	8.15 µM	–
CCCCO[C@@H]1CCC[C@H]1NC(=O)C1CCN(c2nc3cc(Cl)ccc3o2)CC1	0.826 µM	–
O=C(NC1CCCC1C(=O)O)C1CCN(c2nc3cc(Cl)ccc3o2)CC1 (stereo unspecified)	7.18 µM	–
O=C(NC1CCCC1c1ccccc1)C1CCN(c2nc3cc(Cl)ccc3o2)CC1 (stereo unspecified)	0.291 µM	–
CC1CCCC1NC(=O)C1CCN(c2nc3cc(Cl)ccc3o2)CC1 (stereo unspecified)	0.242 µM	–
O=C(NC1CCCCCC1)C1CCN(c2nc3cc(Cl)ccc3o2)CC1	0.821 µM	–
O=C(NC1CCC1)C1CCN(c2nc3cc(Cl)ccc3o2)CC1	3.01 µM	–
CN(C(=O)C1CCN(c2nc3cc(Cl)ccc3o2)CC1)C1CCCC1	> 30 µM	–
O=C(NC1CCCC1)N1CCCN(c2nc3cc(Cl)ccc3o2)CC1	12.9 µM	–
O=C(NC1CCCC1)N1CCN(c2nc3cc(Cl)ccc3o2)CC1	> 10 µM	–
O=S(=O)(NC1CCCC1)C1CCN(c2nc3cc(Cl)ccc3o2)CC1	> 10 µM	–
O=C(CCCNc1nc2cc(Cl)ccc2o1)NC1CCCC1	> 10 µM	–
CSCCNC(=O)C1CCN(c2nc3cc(Cl)ccc3o2)CC1	1.2 µM	–
O=C(NC1CCCC1)C1CCN(c2nc3cc(Cl)ccc3o2)CC1	–	fraction unbound [15]: 0.005; IC50 [3]: > 100 µM
CC(C)c1ccc2c(c1)c(SC(C)(C)C)c(CC(C)(C)C(=O)O)n2Cc1ccc(Cl)cc1	–	IC50 [16]: 8.2 µM
